Calls of active or inactive are those of the source.
How the values were obtained:
NCI-H322M = assay: Growth inhibition of human NCI-H322M cells at 10 uM after 48 hrs by sulforhodamine B assay; type: functional
Malme-3M = assay: Growth inhibition of human MALME-3M cells at 10 uM after 48 hrs by sulforhodamine B assay; type: functional; conditions: read-out: GI
MDA-MB-435 = assay: Growth inhibition of human MDA-MB-435 cells at 10 uM after 48 hrs by sulforhodamine B assay; type: functional
TK-10 = assay: Growth inhibition of human TK10 cells at 10 uM after 48 hrs by sulforhodamine B assay; type: functional
HCT-15 = assay: Growth inhibition of human HCT15 cells at 10 uM after 48 hrs by sulforhodamine B assay; type: functional; conditions: HCT-15, 48 h, read-out: GI
UACC-257 = assay: Growth inhibition of human UACC257 cells at 10 uM after 48 hrs by sulforhodamine B assay; type: functional
NCI/ADR-RES = assay: Growth inhibition of human NCI-ADR-RES cells at 10 uM after 48 hrs by sulforhodamine B assay; type: functional
MDA-MB-231 = assay: Growth inhibition of human MDA-MB-231 cells at 10 uM after 48 hrs by sulforhodamine B assay; type: functional
NCI-H522 = assay: Growth inhibition of human NCI-H522 cells at 10 uM after 48 hrs by sulforhodamine B assay; type: functional; conditions: NCI-H522, 48 h, read-out: GI
786-0 = assay: Growth inhibition of human 786-0 cells at 10 uM after 48 hrs by sulforhodamine B assay; type: functional; conditions: 786-0, 48 h, read-out: GI
PC-3 = assay: Growth inhibition of human PC3 cells at 10 uM after 48 hrs by sulforhodamine B assay; type: functional; conditions: PC-3, 48 h, read-out: GI
A549 = assay: Growth inhibition of human A549/ATCC cells at 10 uM after 48 hrs by sulforhodamine B assay; type: functional; conditions: A549, 48 h, read-out: GI
SK-MEL-2 = assay: Growth inhibition of human SK-MEL-2 cells at 10 uM after 48 hrs by sulforhodamine B assay; type: functional
HCT-116 = assay: Growth inhibition of human HCT116 cells at 10 uM after 48 hrs by sulforhodamine B assay; type: functional; conditions: HCT-116, 48 h, read-out: GI
SNB-19 = assay: Growth inhibition of human SNB19 cells at 10 uM after 48 hrs by sulforhodamine B assay; type: functional
SNB-75 = assay: Growth inhibition of human SNB75 cells at 10 uM after 48 hrs by sulforhodamine B assay; type: functional; conditions: SNB-75, 48 h, read-out: GI
HOP-62 = assay: Growth inhibition of human HOP62 cells at 10 uM after 48 hrs by sulforhodamine B assay; type: functional
A498 = assay: Growth inhibition of human A498 cells at 10 uM after 48 hrs by sulforhodamine B assay; type: functional
T47D = assay: Growth inhibition of human T47D cells at 10 uM after 48 hrs by sulforhodamine B assay; type: functional
OVCAR-5 = assay: Growth inhibition of human OVCAR5 cells at 10 uM after 48 hrs by sulforhodamine B assay; type: functional
SF-539 = assay: Growth inhibition of human SF539 cells at 10 uM after 48 hrs by sulforhodamine B assay; type: functional; conditions: SF-539, 48 h, read-out: GI
BT-549 = assay: Growth inhibition of human BT549 cells at 10 uM after 48 hrs by sulforhodamine B assay; type: functional; conditions: BT-549, 48 h, read-out: GI
SK-OV-3 = assay: Growth inhibition of human SKOV3 cells at 10 uM after 48 hrs by sulforhodamine B assay; type: functional; conditions: SK-OV-3, 48 h, read-out: GI
NCI-H226 = assay: Growth inhibition of human NCI-H226 cells at 10 uM after 48 hrs by sulforhodamine B assay; type: functional
SK-MEL-28 = assay: Growth inhibition of human SK-MEL-28 cells at 10 uM after 48 hrs by sulforhodamine B assay; type: functional, cell-based
MOLT-4 = assay: Growth inhibition of human MOLT4 cells at 10 uM after 48 hrs by sulforhodamine B assay; type: functional; conditions: MOLT-4, 48 h, read-out: GI
SW-620 = assay: Growth inhibition of human SW620 cells at 10 uM after 48 hrs by sulforhodamine B assay; type: functional
COLO 205 = assay: Growth inhibition of human COLO205 cells at 10 uM after 48 hrs by sulforhodamine B assay; type: functional; conditions: COLO 205, 48 h, read-out: GI
UACC-62 = assay: Growth inhibition of human UACC62 cells at 10 uM after 48 hrs by sulforhodamine B assay; type: functional
U-251 = assay: Growth inhibition of human U251 cells at 10 uM after 48 hrs by sulforhodamine B assay; type: functional; conditions: U-251, 48 h, read-out: GI
NCI-H460 = assay: Growth inhibition of human NCI-H460 cells at 10 uM after 48 hrs by sulforhodamine B assay; type: functional
HL-60(TB) = assay: Growth inhibition of human HL-60(TB) cells at 10 uM after 48 hrs by sulforhodamine B assay; type: functional
MDA-MB-468 = assay: Growth inhibition of human MDA-MB-468 cells at 10 uM after 48 hrs by sulforhodamine B assay; type: functional
NCI-H23 = assay: Growth inhibition of human NCI-H23 cells at 10 uM after 48 hrs by sulforhodamine B assay; type: functional
KM12 = assay: Growth inhibition of human KM12 cells at 10 uM after 48 hrs by sulforhodamine B assay; type: functional
LOX IMVI = assay: Growth inhibition of human LOXIMVI cells at 10 uM after 48 hrs by sulforhodamine B assay; type: functional
SN12C = assay: Growth inhibition of human SN12C cells at 10 uM after 48 hrs by sulforhodamine B assay; type: functional
IGROV-1 = assay: Growth inhibition of human IGROV1 cells at 10 uM after 48 hrs by sulforhodamine B assay; type: functional
SF-295 = assay: Growth inhibition of human SF295 cells at 10 uM after 48 hrs by sulforhodamine B assay; type: functional
RPMI-8226 = assay: Growth inhibition of human RPMI8226 cells at 10 uM after 48 hrs by sulforhodamine B assay; type: functional; conditions: RPMI-8226, 48 h, read-out: GI
DU-145 = assay: Growth inhibition of human DU145 cells at 10 uM after 48 hrs by sulforhodamine B assay; type: functional
SR = assay: Growth inhibition of human SR cells at 10 uM after 48 hrs by sulforhodamine B assay; type: functional; conditions: read-out: GI
SK-MEL-5 = assay: Growth inhibition of human SK-MEL-5 cells at 10 uM after 48 hrs by sulforhodamine B assay; type: functional
CAKI-1 = assay: Growth inhibition of human CAKI-1 cells at 10 uM after 48 hrs by sulforhodamine B assay; type: functional; conditions: CAKI-1, 48 h, read-out: GI
MCF7 = assay: Growth inhibition of human MCF7 cells at 10 uM after 48 hrs by sulforhodamine B assay; type: functional; conditions: MCF7, 48 h, read-out: GI

CCc1cc(CC)n(-c2ccncc2S(N)(=O)=O)n1
6%: inhibition of growth at 10 µM (SK-OV-3)
13%: inhibition of growth at 10 µM (COLO 205)
9%: inhibition of growth at 10 µM (Malme-3M) | inhibition of growth at 10 µM (RPMI-8226)
inactive: growth inhibition (GI) (NCI-H322M) | growth inhibition (GI) (MDA-MB-435) | growth inhibition (GI) (TK-10) | growth inhibition (GI) (UACC-257) | growth inhibition (GI) (NCI/ADR-RES) | growth inhibition (GI) (MDA-MB-231) | growth inhibition (GI) (SK-MEL-2) | growth inhibition (GI) (SNB-19) | growth inhibition (GI) (HOP-62) | growth inhibition (GI) (A498) | growth inhibition (GI) (T47D) | growth inhibition (GI) (OVCAR-5) | growth inhibition (GI) (NCI-H226) | growth inhibition (GI) (SK-MEL-28) | growth inhibition (GI) (SW-620) | growth inhibition (GI) (UACC-62) | growth inhibition (GI) (NCI-H460) | growth inhibition (GI) (HL-60(TB)) | growth inhibition (GI) (MDA-MB-468) | growth inhibition (GI) (NCI-H23) | growth inhibition (GI) (KM12) | growth inhibition (GI) (LOX IMVI) | growth inhibition (GI) (SN12C) | growth inhibition (GI) (IGROV-1) | growth inhibition (GI) (SF-295) | growth inhibition (GI) (DU-145) | growth inhibition (GI) (SK-MEL-5)
7%: inhibition of growth at 10 µM (NCI-H522)
5%: inhibition of growth at 10 µM (SR)
3%: inhibition of growth at 10 µM (SNB-75)
2%: inhibition of growth at 10 µM (786-0) | inhibition of growth at 10 µM (BT-549) | inhibition of growth at 10 µM (MOLT-4)
1%: inhibition of growth at 10 µM (PC-3) | inhibition of growth at 10 µM (A549) | inhibition of growth at 10 µM (HCT-116) | inhibition of growth at 10 µM (U-251) | inhibition of growth at 10 µM (CAKI-1)
10%: inhibition of growth at 10 µM (MCF7)
4%: inhibition of growth at 10 µM (HCT-15) | inhibition of growth at 10 µM (SF-539)
